Data reported in US10898420B2, “Compositions containing phenolic compounds having synergistic antioxidant benefits” (L'OREAL, priority 2016, dated 2021).

Columns and labels:
[1] = Oxygen radical absorbance capacity (ORAC) assay, fluorescein probe with AAPH, Trolox standard; conditions: individual antioxidant compound
Description: (§1) Synergism was determined by comparing the antioxidant capacities of combinations of components measured by ORAC and HORAC, with expected or additive values of the individual compounds. The […], measure two different antioxidant properties, radical chain breaking and prevention of radical formation. The ORAC and HORAC assays are both fluorometric assays that use hydrogen atom transfer chemistry to detect oxidation of a fluorescent probe. In the ORAC assay, a free radical initiator is used to produce peroxyl radical probes, while in the HORAC assay, a hydroxyl radical initiator and fenton reagent are used to produce hydroxyl radical probes.
(§2) As reflected in the Examples below, the expected ORAC/HORAC is the combined (additive) antioxidant capacity of each individual antioxidant compound in the association, measured individually and assuming that each is functioning independently. The expected ORAC or HORAC value of a certain association can be calculated by using the following equation: ORAC or HORAC (total)=sum of ORAC or HORAC (compound n, individually) multiplied by the Percentage (compound n, of use in a cosmetic composition), n=1, 2, 3 . . . .
The ORAC assay is one of most commonly used methods to evaluate the capacity of antioxidants against ROS (reactive oxygen species), specific for peroxyl which is one of the most important free radicals present in the human skin environment. […] Azo-initiators are considered to produce the peroxyl radical by heating, which damages the fluorescent molecule, resulting in the loss of fluorescence. […] By quantifying the decay of fluorescence using a fluorometer, the degree of protection is determined comparing with a standard control antioxidant Trolox. […] Equipment that can automatically measure and calculate the capacity is commercially available, such as the VarioSkan flash microplate reader from Thermo Scientific.
References disclosing ORAC assays include: Cao G, Alessio H, Cutler R (1993). “Oxygen-radical absorbance capacity assay for antioxidants”. […]

[2] = Hydroxyl oxygen radical absorbance capacity (HORAC) assay, fluorescent probe with hydrogen peroxide and Cobalt(II) fluoride, Gallic acid standard; conditions: individual antioxidant compound
Description: as §1, §2
Similar to the ORAC assay, the HORAC assay is an in tubo assay designed to quantify the capacity of an antioxidant to avert the hydroxyl radical or anti-Fenton reaction. The hydroxyl radical, generated from hydrogen peroxide and Cobalt(II) fluoride (Fenton reaction), will quench a fluorescent probe by a hydrogen atom transfer reaction. Certain antioxidants can chelate the Co(II), preventing the generation of the hydroxyl radical and initially block or prevent the quenching of the probe. By quantifying the decay of fluorescence using a fluorometer, the degree of protection is determined comparing with a standard control antioxidant Gallic acid. The result is expressed in μMol equivalent of Gallic acid. Equipment that can automatically measure and calculate the capacity is commercially available, such as the VarioSkan flash microplate reader from Thermo Scientific. […]

Row | Compound | ORAC [1] [μmolTolox/g] | HORAC [2]
1 | COc1cc(/C=C/C(=O)O)ccc1O [ferulic acid] | 14272 | 9868 μmolGAE/g
2 | O=C(O)[C@H]1O[C@@H](Oc2cc3oc(-c4ccccc4)cc(=O)c3c(O)c2O)[C@H](O)[C@@H](O)[C@@H]1O [baicalin] | 4759 | 2592 μmolGAE/g
3 | O=C1O[C@H]([C@@H](O)CO)C(O)=C1O [Vitamin C, ascorbic acid] | 4456 | No activity
